Test system: human living fibroblast-derived 253G1 iPS cell strain
Assay: Physical cell length (cell thickness) by reflecting quantitative phase microscope
Assay type: cell-based
Conditions: 253G1 iPS cells on feeder, medium with 12.5 μM retinoic acid from 2nd day after seeding, further cultured 4 days (differentiated cell)
Method: On a 35 mm-diameter glass bottom dish with antireflection coating, a human living fibroblast-derived 253G1 iPS cell strain was seeded at 10-20 colonies/dish, and cultured on a feeder using a medium containing a final concentration of 4 ng/mL of human basic fibroblast growth factor (Primate ES Medium, ReproCELL Incorporated, Trade name: RCHEMD001). The size of one colony was approximately 200 μm. For the feeder cell, a mouse lung fibroblast cell was used. The cell was cultured until the 3rd day after the seeding. The medium was exchanged once a day.
The sample for differentiation of the iPS cell was transferred to a medium containing a final concentration of 4 ng/mL of human basic fibroblast growth factor and 12.5 μM of retinoic acid (Primate ES Medium) on the 2nd day after the seeding, and further cultured for 4 days. Generally, retinoic acid is used as a reagent for inducing differentiation. […]
For the cells in a 60 μm×80 μm visual field, three-dimensional data was obtained at intervals of 0.125 μm in horizontal direction and 0.32 μm in vertical direction using a reflecting quantitative phase microscope, and a tomographic image was produced from the obtained data. […] From the obtained bottom and surface shapes, a cell thickness (physical length) was measured to calculate a mean value.

CC1=C(/C=C/C(C)=C/C=C/C(C)=C/C(=O)O)C(C)(C)CCC1 [retinoic acid]
Mean value of the physical cell length: 6.25 μm

Reference: patent US20150219543A1, “CELL EVALUATION METHOD” (HAMAMATSU PHOTONICS K.K., priority 2014, published 2015)
